Experiments:
[1] = Metabolic stability in human liver microsomes (HLM); assay type: in vitro ADME; settings: from HLM half-life, well-stirred model, phase I reactions; 1 μM, 0.5 mg/ml protein
Experimental: EXAMPLE 18 METABOLIC STABILITY OF (11β,17β)-17-HYDROXY-11[4-(METHYLSULPHONYL)PHENYL]-17-(PENTAFLUOROETHYL)ESTRA-4,9-DIEN-3-ONE AND (11β,17β)-17-HYDROXY-11-[4′-(METHYLSULPHONYL)-BIPHENYL-4-YL]-17-(PENTAFLUOROETHYL)ESTRA-4,9-DIEN-3-ONE IN HUMAN LIVER MICROSOMES (HLM)
Isolated human liver microsomes (HLM) were used for assessing the metabolic stability of compounds of general formula I.
Incubations were carried out with 2.4 ml of HLM solution (0.5 mg/ml protein content), 30 μl of the test compound (final concentration 1 μM) and 0.6 ml of the cofactor mixture (=NADPH-generating system of 3 IU glucose-6-phosphate dehydrogenase, 14.6 mg glucose-6-phosphate, 1.2 mg NADP) at 37° C. in 100 mM phosphate buffer at pH 7.4. Samples are taken at 6 time points (2-60 min), precipitated with an equal volume of methanol and the recovery of the test substances used in the supernatant is determined by LC-MS/MS analysis. The intrinsic clearance of the substance in the liver microsome preparation can be calculated from the half-life found for the breakdown of the substance. Based on this, together with various physiological characteristics according to the well-stirred model, it is then possible to predict a (metabolic) in vivo clearance with respect to phase I reactions. […]

[2] = target: T1, human progesterone receptor A (Homo sapiens, UniProt P06401); experiment: Progesterone receptor-antagonistic action in stably transfected SK-N-MC cells, MTV-LUC reporter (PR-A); assay type: cell-based; settings: antagonistic efficacy vs 0.1 nmol/l promegestone
T1 construct: expressed in transfected cells; host or cells: SK-N-MC human neuroblastoma cells, stably transfected
T1 sequence (P06401 1-769 isoform P06401-2): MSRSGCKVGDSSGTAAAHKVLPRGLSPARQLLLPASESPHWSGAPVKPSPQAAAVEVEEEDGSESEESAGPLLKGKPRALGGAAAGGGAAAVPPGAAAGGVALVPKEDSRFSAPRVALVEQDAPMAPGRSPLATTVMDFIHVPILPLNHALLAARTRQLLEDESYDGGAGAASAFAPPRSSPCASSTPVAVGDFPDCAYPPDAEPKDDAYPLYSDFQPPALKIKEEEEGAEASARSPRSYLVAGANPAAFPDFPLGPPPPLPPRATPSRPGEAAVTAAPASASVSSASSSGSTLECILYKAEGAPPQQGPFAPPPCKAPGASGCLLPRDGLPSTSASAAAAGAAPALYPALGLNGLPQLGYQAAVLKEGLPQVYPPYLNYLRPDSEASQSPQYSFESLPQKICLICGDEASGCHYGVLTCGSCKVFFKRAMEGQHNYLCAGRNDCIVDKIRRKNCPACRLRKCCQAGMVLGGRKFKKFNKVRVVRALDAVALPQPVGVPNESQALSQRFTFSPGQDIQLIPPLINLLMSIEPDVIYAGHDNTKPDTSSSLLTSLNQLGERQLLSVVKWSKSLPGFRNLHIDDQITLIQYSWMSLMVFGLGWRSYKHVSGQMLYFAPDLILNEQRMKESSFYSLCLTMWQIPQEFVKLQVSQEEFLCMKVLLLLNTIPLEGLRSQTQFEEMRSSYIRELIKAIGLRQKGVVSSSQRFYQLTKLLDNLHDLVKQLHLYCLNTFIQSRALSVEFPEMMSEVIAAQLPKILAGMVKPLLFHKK
Experimental: EXAMPLE 16 PROGESTERONE RECEPTOR-ANTAGONISTIC ACTION IN STABLE TRANSFECTANTS OF HUMAN NEUROBLASTOMA CELLS (SK-N-MC CELLS) WITH THE HUMAN PROGESTERONE A OR PROGESTERONE B RECEPTOR AND AN MTV-LUC REPORTER CONSTRUCT
SK-N-MC cells (human neuroblastoma cells), which have been stably transfected with plasmids, which express the human progesterone receptor B (pRChPR-B-neo) or the human progesterone receptor A (pRChPR-A-neo) and a reporter construct (pMMTV-LUC), were incubated for 24 hours either in the absence (negative control) or in the presence of increasing amounts of the respective test compound (0.01 nmol/l, 0.1 nmol/l 1 nmol/l, 10 nmol/l, 100 nmol/l and 1 μmol/l), in order to determine the agonistic efficacy. As positive control of reporter gene induction, the cells were treated with the synthetic gestagen promegestone (0.01 nmol/l, 0.1 nmol/l, 1 nmol/l, 10 nmol/l, 100 nmol/l and 1 μmol/l). For determination of the antagonistic activity, the cells were treated with 0.1 nmol/1 promegestone and additionally with increasing amounts of the respective test compound (0.01 nmol/l, 0.1 nmol/l, 1 nmol/l, 10 nmol/l, 100 nmol/l and 1 μmol/l). The activity of the LUC reporter gene (LUC=luciferase) was determined in the cell lysates and was measured as RLU (relative light units). All measured values are given as percentage efficacy and as EC50 or IC50 concentrations.
11β-(4-Acetylphenyl)-20,20,21,21,21-pentafluoro-17-hydroxy-19-nor-17α-pregna-4,9-dien-3-one and 20,20,21,21,21-pentafluoro-17-hydroxy-11β-[4-(hydroxyacetyl)phenyl]-19-nor-17α-pregna-4,9-dien-3-one, very potent and therefore preferred examples from WO98/34947 and WO2008/058767, were tested as comparative compounds along with the test compound.

SMILES: C[C@]12C[C@H](c3ccc(S(C)(=O)=O)cc3)C3=C4CCC(=O)C=C4CC[C@H]3[C@@H]1CC[C@@]2(O)C(F)(F)C(F)(F)F [Example 4, (11β,17β)-17-Hydroxy-11-[4-(methylsulphonyl)phenyl]-17-(pentafluoroethyl)estra-4,9-dien-3-one]
- (metabolic) in vivo clearance in humans predicted [1]: 1.7 mL/min/kg
- Progesterone receptor A (PR-A) Efficacy [2]: 100%

Source: US10155004B2, “17-hydroxy-17-pentafluoroethyl-estra-4,9(10)-dien-11-aryl derivatives, method of production thereof and use thereof for the treatment of diseases” (BAYER INTELLECTUAL PROPERTY GMBH, priority 2009, dated 2018)
